Test results as given in the NIST ThermoML archive (doi:10.1021/je800231f).
Values joined by “and” are separate entries in the source; they are usually repeats but may differ in a detail not shown here. Equal entries are not always repeated.

Settings: Crystal

[F-].[F-].[Hg+2] [mercuric difluoride]
Settings | vapor or sublimation pressure
457 K | 0.00015 kPa
464 K | 0.00018 kPa
466 K | 0.00024 kPa
469 K | 0.0003 kPa
473 K | 0.00024 kPa
474 K | 0.00042 kPa
475 K | 0.00036 kPa
480 K | 0.00048 kPa
481 K | 0.00066 kPa and 0.00042 kPa
483 K | 0.00051 kPa and 0.00054 kPa
487 K | 0.0006 kPa
488 K | 0.00089 kPa
490 K | 0.00076 kPa and 0.00078 kPa
492 K | 0.00078 kPa
493 K | 0.00091 kPa
494 K | 0.00089 kPa
496 K | 0.00115 kPa and 0.00095 kPa and 0.00107 kPa
498 K | 0.00135 kPa and 0.00107 kPa
499 K | 0.00112 kPa
502 K | 0.00162 kPa and 0.00132 kPa
503 K | 0.00151 kPa
504 K | 0.00178 kPa
505 K | 0.00174 kPa
507 K | 0.00162 kPa and 0.00186 kPa
510 K | 0.00209 kPa
511 K | 0.00245 kPa
512 K | 0.00224 kPa
513 K | 0.00288 kPa and 0.00245 kPa
514 K | 0.00229 kPa
515 K | 0.00257 kPa
516 K | 0.00347 kPa
518 K | 0.00363 kPa
520 K | 0.00324 kPa
521 K | 0.00398 kPa and 0.00339 kPa
523 K | 0.00331 kPa
525 K | 0.00437 kPa and 0.00363 kPa
526 K | 0.00479 kPa
527 K | 0.00437 kPa and 0.00457 kPa
528 K | 0.00457 kPa
529 K | 0.0055 kPa
533 K | 0.00575 kPa
535 K | 0.00759 kPa and 0.00617 kPa
537 K | 0.00759 kPa
539 K | 0.00646 kPa
542 K | 0.00871 kPa
543 K | 0.01047 kPa and 0.00871 kPa
544 K | 0.01072 kPa
549 K | 0.00933 kPa
551 K | 0.01318 kPa and 0.01175 kPa
552 K | 0.01445 kPa
555 K | 0.0138 kPa
557 K | 0.0166 kPa and 0.01318 kPa
560 K | 0.01862 kPa and 0.01698 kPa
561 K | 0.01622 kPa
565 K | 0.02188 kPa
568 K | 0.02455 kPa
570 K | 0.02042 kPa
580 K | 0.02951 kPa
589 K | 0.04074 kPa

[F][Hg].[F][Hg] [mercury fluoride (Hg2F2)]
Settings | vapor or sublimation pressure
496 K | 2.3e-05 kPa
503 K | 3.4e-05 kPa
508 K | 5.8e-05 kPa
509 K | 4.6e-05 kPa
515 K | 7.9e-05 kPa
516 K | 6.8e-05 kPa
520 K | 0.000102 kPa
524 K | 0.000138 kPa
526 K | 0.000138 kPa
531 K | 0.000204 kPa
533 K | 0.000229 kPa
536 K | 0.000288 kPa and 0.000214 kPa and 0.000229 kPa
539 K | 0.000275 kPa
542 K | 0.000389 kPa
543 K | 0.000324 kPa
544 K | 0.000407 kPa
545 K | 0.000437 kPa
546 K | 0.000501 kPa and 0.000363 kPa
547 K | 0.000437 kPa
548 K | 0.000501 kPa
549 K | 0.000457 kPa
552 K | 0.000589 kPa
553 K | 0.00055 kPa
554 K | 0.000871 kPa and 0.000646 kPa and 0.000575 kPa
556 K | 0.000676 kPa
557 K | 0.000794 kPa and 0.000724 kPa
559 K | 0.000871 kPa and 0.000724 kPa and 0.000851 kPa
560 K | 0.000794 kPa
562 K | 0.001 kPa and 0.000912 kPa
563 K | 0.001 kPa
564 K | 0.001288 kPa and 0.001 kPa
565 K | 0.001148 kPa and 0.001259 kPa
567 K | 0.001259 kPa
569 K | 0.00123 kPa
571 K | 0.001585 kPa
572 K | 0.001585 kPa and 0.001445 kPa
573 K | 0.002138 kPa and 0.001549 kPa and 0.001349 kPa
574 K | 0.001585 kPa
576 K | 0.002042 kPa
577 K | 0.002399 kPa
578 K | 0.00195 kPa and 0.002089 kPa and 0.001905 kPa
579 K | 0.002089 kPa
580 K | 0.002089 kPa
582 K | 0.003162 kPa
583 K | 0.002089 kPa
584 K | 0.003236 kPa and 0.002512 kPa
585 K | 0.002692 kPa and 0.002818 kPa
586 K | 0.002884 kPa
588 K | 0.003236 kPa and 0.003162 kPa
589 K | 0.00309 kPa
590 K | 0.003548 kPa
591 K | 0.004571 kPa
592 K | 0.004467 kPa
593 K | 0.003631 kPa
594 K | 0.004467 kPa
595 K | 0.004365 kPa
596 K | 0.004571 kPa and 0.004365 kPa
599 K | 0.006026 kPa and 0.004786 kPa
600 K | 0.006918 kPa and 0.00537 kPa
601 K | 0.005754 kPa
605 K | 0.007762 kPa and 0.006457 kPa and 0.006761 kPa
606 K | 0.006918 kPa [middle of 4 runs]
609 K | 0.00955 kPa
611 K | 0.008128 kPa and 0.00955 kPa and 0.007413 kPa
614 K | 0.01 kPa and 0.00871 kPa
615 K | 0.01 kPa
616 K | 0.01259 kPa and 0.01072 kPa and 0.01097 kPa
617 K | 0.01148 kPa
618 K | 0.0123 kPa
619 K | 0.01023 kPa
622 K | 0.0138 kPa and 0.0123 kPa
623 K | 0.01514 kPa
624 K | 0.01738 kPa
625 K | 0.01862 kPa
626 K | 0.0138 kPa
628 K | 0.01549 kPa
629 K | 0.0195 kPa
